In patent US4791200A, “2-substituted-4-aryl-substituted thiazoles” (Ortho Pharmaceutical Corporation, priority 1987, dated 1988):
pIC50: −log10 of the molar value. Like-named read-outs stand apart in the source and are kept apart here.

Columns and labels:
[1] = test system: acid output (gastric secretion); assay: Gastric Secretion (pylorus ligation, modified Shay); format: in vivo, male Charles River Sprague Dawley derived rats; conditions: i.d. or s.c., 4 hours after ligation; for response vs control in vivo at 40 mg/kg: at 40 mpK
Protocol: The inhibitory activity of the compounds on acid output was tested using pylorus ligation in a modification of the procedure of Shay, H. et al., Gastroenterology 26, 906 (1954). Basically, male Charles River Sprague Dawley derived rats weighing 150-300 grams were deprived of food but not water for 18-24 hours prior to use. Water was withheld during the experiment, however. The rats were weighed, anesthetized with ether and the pylorus ligated according to the method of Shay et al., supra. Treatment or vehicle control was then administered intraduodenally (i.d.) or subcutaneously (s.c.). Rats were housed two/cage and sacrificed with CO2 four hours after ligation. The stomachs were removed, rinsed, and contents emptied into a graduated centrifuge tube. The tubes were centrifuged, the volume of gastric juice recorded, and any samples obviously contaminated by feces, food or blood were eliminated. A 1 ml aliquot of gastric juice was titrated with 0.1N NaOH to a pH of 7.0-7.4. The volume of gastric juice secreted, the acid concentration, and the product of the volume times the concentration, i.e., the total amount of acid secreted, were measured.

[2] = test system: parietal cells; assay: Isolated Parietal Cell Assay (14C-aminopyrine accumulation, histamine or dibutyryl cAMP stimulated); format: cell-based, rabbit; conditions: Oryctolagus cuniculus
Protocol: The isolated parietal cell assay was conducted using the procedures of Batzri, S. et al., Biochemica et Biophysica Acta 508, 328 (1978) and Soll, A. H. Am. J. Physiol. 238, G366 (1980). Basically, parietal cells were isolated from the fundic mucosa of rabbit stomachs by a four-stage collagenase digestion process. The supernatant fractions from the last two stages of this process contain the individual parietal cells. This cell suspension was centrifuged and reconstituted in a modified Hank's buffer to contain 1-2×10^6 cells/ml. […] This accumulation was stimulated by histamine and was blocked by H2 antagonists. The cells were incubated with 0.4-0.5×10^6 cpm ^14 C-AP, with various concentrations of histamine as a stimulant, 1×10^-5 M isobutylmethylxanthine, and the test compound added in a 20 μl volume of buffer or DMSO. The flasks were incubated in a shaking water bath at 37° C. for 20 minutes. Two aliquots were then taken from each flask and cell pellets were collected by centrifugation. The pellets were solubilized with Protosol (New England Nuclear) and radioactivity determined by liquid scintillation spectrometry. Data is presented as the IC50 vhist, the concentration of compound required to inhibit ^14 C-AP accumulation in the histamine stimulated parietal cell by 50%.
When dibutyryl cAMP was used to stimulate the cells instead of histamine, a similar inhibition of ^14 C-AP accumulation was measured and the data are presented as the IC50 vcAMP, the concentration required to inhibit ^14 C-AP accumulation in the cAMP stimulated parietal cell by 50%.

[3] = biological target: T1, parietal cell H^+ K^+ ATPase (Oryctolagus cuniculus, UniProt P27112); assay: Inhibition of Parietal Cell H^+ K^+ ATPase; format: biochemical, New Zealand white rabbits; conditions: read-out: % Inhibition at Concentration; for inhibition at 100 µM: at 10^-4 M
T1 construct: determined in fundic mucosa from New Zealand white rabbits which were homogenized; from tissue; host or cells: fundic mucosa of New Zealand white rabbits, homogenized; membrane protein
Protocol: The activity was measured in a 1 ml incubation volume containing 50 mM Tris pH 7.4, 2 mM MgCl2, 2 mM Na2 ATP, with or without 20 mM KCl and vehicle control (dimethylsulfoxide) or test compound added in a 0.02 ml volume. Typically, 20-50 μg membrane protein was added and the tubes were preincubated with test compound for 10 minutes at 37° C. Substrate, Na2 ATP, was then added and the tubes were incubated for another 15 minutes at 37° C. The reaction was stopped by the addition of 1 ml 14% trichloroacetic acid and the samples were centrifuged at 2,000 ×g for 10 minutes. The amount of inorganic phosphate present in an aliquot of supernatant was determined. H^+ K^+ ATPase activity was determined after correcting for the basal (Mg^++ only) enzyme activity present in the membrane preparation.

[4] = Rattus norvegicus, read-out: % Acid Secreted at mpK
[5] = 20 min, histamine stimulated, 37° C., 20 minutes, read-out: IC50 vhist (inhibition of 14C-AP accumulation in the histamine stimulated parietal cell)
[6] = dibutyryl cAMP stimulated, read-out: IC50 vcAMP (inhibition of 14C-AP accumulation in the cAMP stimulated parietal cell)

T1 sequence (P27112 2-1035 limits assumed): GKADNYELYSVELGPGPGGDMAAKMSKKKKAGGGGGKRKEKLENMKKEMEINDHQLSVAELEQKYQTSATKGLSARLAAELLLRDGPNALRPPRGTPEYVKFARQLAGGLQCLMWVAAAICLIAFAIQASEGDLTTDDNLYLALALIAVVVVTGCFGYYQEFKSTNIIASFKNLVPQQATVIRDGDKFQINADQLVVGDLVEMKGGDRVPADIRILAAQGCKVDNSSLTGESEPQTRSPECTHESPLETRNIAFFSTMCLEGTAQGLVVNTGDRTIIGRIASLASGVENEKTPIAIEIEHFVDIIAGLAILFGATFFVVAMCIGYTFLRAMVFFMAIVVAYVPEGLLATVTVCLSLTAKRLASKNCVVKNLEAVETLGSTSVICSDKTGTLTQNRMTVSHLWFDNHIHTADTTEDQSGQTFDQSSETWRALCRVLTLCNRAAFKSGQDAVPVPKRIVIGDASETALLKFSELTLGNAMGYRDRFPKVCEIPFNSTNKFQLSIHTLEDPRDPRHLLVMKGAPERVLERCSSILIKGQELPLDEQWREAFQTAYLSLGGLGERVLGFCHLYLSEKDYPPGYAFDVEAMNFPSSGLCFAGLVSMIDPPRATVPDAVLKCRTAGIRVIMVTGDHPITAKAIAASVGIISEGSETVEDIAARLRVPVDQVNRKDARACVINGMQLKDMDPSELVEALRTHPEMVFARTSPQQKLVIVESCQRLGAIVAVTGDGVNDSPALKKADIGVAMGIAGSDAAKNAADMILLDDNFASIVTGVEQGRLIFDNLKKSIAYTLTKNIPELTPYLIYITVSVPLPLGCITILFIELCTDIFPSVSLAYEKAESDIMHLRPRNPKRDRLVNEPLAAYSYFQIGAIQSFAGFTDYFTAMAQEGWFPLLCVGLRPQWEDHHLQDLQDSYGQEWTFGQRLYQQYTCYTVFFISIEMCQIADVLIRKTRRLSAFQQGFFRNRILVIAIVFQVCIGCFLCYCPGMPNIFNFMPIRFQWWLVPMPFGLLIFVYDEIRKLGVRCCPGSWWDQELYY
T1 sequence (P18597 whole entry partner): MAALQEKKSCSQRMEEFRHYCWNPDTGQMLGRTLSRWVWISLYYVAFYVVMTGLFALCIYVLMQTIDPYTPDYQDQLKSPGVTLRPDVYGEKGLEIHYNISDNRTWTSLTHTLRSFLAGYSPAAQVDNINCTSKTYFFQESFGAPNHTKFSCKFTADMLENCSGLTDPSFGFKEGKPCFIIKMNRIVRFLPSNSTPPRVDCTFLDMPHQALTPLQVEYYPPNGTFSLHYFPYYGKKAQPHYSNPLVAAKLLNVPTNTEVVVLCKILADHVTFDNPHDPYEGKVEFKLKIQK

SMILES | pIC50 [2, 5] | pIC50 [2, 6] | inhibition at 100 µM [3] [%] | response vs control in vivo at 40 mg/kg [1, 4] [%] | % Acid Secreted at mpK ([1]; at 20 mpK) [%] | other results
CCN(CC)CCCOc1ccc(-c2csc(-c3ccccc3)n2)cc1 [Example 4, 4-(4-Diethylaminopropoxyphenyl)-2-phenylthiazole] | 6.92 | 7.05 |  | 82 |  | inhibition at 47 µM ([3]; at 47 μM): 50%
CN1CCN(CCCOc2ccc(-c3csc(-c4ccccc4)n3)cc2)CC1 [Example 6, 4-[4-(4-Methylpiperazol-1-yl)propoxyphenyl]-2-phenylthiazole] | 6.74 | 6.92 |  | 18 |  | inhibition at 44 µM ([3]; at 44 μM): 50%
COc1ccccc1N1CCN(CCCOc2ccc(-c3csc(-c4ccccc4)n3)cc2)CC1 [Example 7, 4-[4-[4-(2-Methoxyphenyl)piperazol-1-yl]propoxyphenyl]-2-phenylthiazole] | 6.32 | 6.47 | 28 |  |  | 
c1ccc(-c2nc(-c3ccc(OCCCN4CCCCC4)cc3)cs2)cc1 [Example 8, 4-[4-(3-Piperidino)propoxyphenyl]-2-phenylthiazole] | 6.96 | 7.30 |  | 92 | 46 | % Acid Secreted at mpK ([1]; at 10 mpK): 25%; inhibition at 34 µM ([3]; at 34 μM): 50%
c1ccc(-c2nc(-c3ccc(OCCCN4CCCC4)cc3)cs2)cc1 [Example 9, 4-[4-(3-Pyrrolidino)propoxyphenyl]-2-phenylthiazole] | 6.41 | > 5.00 |  |  | 36 | inhibition at 32 µM ([3]; at 32 μM): 50%
c1ccc(-c2nc(-c3ccc(OCCCn4ccnc4)cc3)cs2)cc1 [Example 10, 4-[4-(1H-Imidazol-1-yl)propoxyphenyl]-2-phenylthiazole] | 7.10 | 7.70 |  |  | 91 | response vs control in vivo at 5 mg/kg ([1]; Rattus norvegicus, at 5 mpK, read-out: % Acid Secreted at mpK): 33%; response vs control in vivo at 5.7 mg/kg ([1]; Rattus norvegicus, at 5.7 mpK, read-out: % Acid Secreted at mpK): 50%; % Acid Secreted at mpK ([1]; at 10 mpK): 78%; inhibition at 18 µM ([3]; at 18 μM): 50%
CN(CCCOc1ccc(-c2csc(-c3ccccc3)n2)cc1)Cc1ccccc1 [Example 11, 4-(4-Benzylmethylaminopropoxyphenyl)-2-phenylthiazole] | 6.43 | 6.68 | 39 |  | 48 | 
CCCCN(CCCC)CCCCOc1ccc(-c2csc(-c3ccccc3)n2)cc1 [Example 13] | 6.89 | 6.92 | 64 | 90 | 56 | 
c1ccc(-c2nc(-c3ccc(OCCCCn4ccnc4)cc3)cs2)cc1 [Example 14] | 6.09 | 6.51 | 0 | 31 |  | 
CCCCN(CCCC)CCCCCOc1ccc(-c2csc(-c3ccccc3)n2)cc1 [Example 15] | 6.31 | 6.07 | 58 |  | 54 | 
Clc1cc(-c2csc(-c3ccccc3)n2)cc(Cl)c1OCCCn1ccnc1 [Example 23, 4-[3,5-Dichloro-4-(1H-imidazol-1-yl)propoxyphenyl]-2-phenylthiazole] | 6.40 | 6.34 |  |  | 33 | inhibition at 2.4 µM ([3]; at 2.4 μM): 50%

The next lines start with results.

pIC50 [2, 5] | pIC50 [2, 6] | inhibition at 100 µM [3] [%] | SMILES | response vs control in vivo at 40 mg/kg [1, 4] [%] | % Acid Secreted at mpK ([1]; at 20 mpK) [%] | other results
6.35 | 6.38 | 47 | CCCCN(CCCC)CCCOc1ccc(-c2csc(-c3ccccc3)n2)cc1 [Example 1, 4-(4-Dibutylaminopropoxyphenyl)-2-phenylthiazole] | 97 | 75 | response vs control in vivo at 17 mg/kg ([1]; Rattus norvegicus, at 17.0 mpK, read-out: % Acid Secreted at mpK): 50%
5.82 | 5.08 | 22 | CCCCN(CCCC)CCCOc1ccc(-c2csc(C)n2)cc1 [Example 2, 4-(4-Dibutylaminopropoxyphenyl)-2-methylthiazole] |  | 8 | 
6.57 | 6.64 | 65 | CCCCN(CCCC)CCCOc1ccc(-c2nc(-c3ccccc3)sc2C)cc1 [Example 3, 4-(4-Dibutylaminopropoxyphenyl)-5-methyl-2-phenylthiazole] |  | 36 | 
6.64 | 6.74 | 60 | CCCN(CCC)CCCOc1ccc(-c2csc(-c3ccccc3)n2)cc1 [Example 5, 4-(4-Dipropylaminopropoxyphenyl)-2-phenylthiazole] | 94 |  | 
6.51 | 6.46 | 44 | CCCCN(CCCC)CCOc1ccc(-c2csc(-c3ccccc3)n2)cc1 [Example 12, 4-(4-Dibutylaminoethoxyphenyl)-2-phenylthiazole] |  | 41 | 
5.68 | 5.74 | 55 | CCCCN(CCCC)CCCOc1ccc(-c2csc(-c3ccc(Cl)cc3)n2)cc1 [Example 16] |  | 40 | 
6.32 | 6.64 | 33 | CCCCN(CCCC)CCCOc1ccc(-c2csc(-c3ccc(OC)cc3)n2)cc1 [Example 17, 4-(4-Dibutylaminopropoxyphenyl)-2-(4-methoxyphenyl)thiazole] |  | 4 | 
6.59 | 6.27 | 30 | CCCCN(CCCC)CCCOc1ccc(-c2csc(-c3cc(OC)cc(OC)c3)n2)cc1 [Example 18, 4-(4-Dibutylaminopropoxyphenyl)-2-(3,5-dimethoxyphenyl)thiazole] |  | 17 | 
5.82 | 5.52 |  | CCCCN(CCCC)CCCOc1ccc(-c2csc(-c3ccc(C)cc3)n2)cc1 [Example 19, 4-(4-Dibutylaminopropoxyphenyl)-2-(4-methylphenyl)thiazole] |  | 41 | inhibition at 24 µM ([3]; at 24 μM): 50%
5.54 | 5.70 |  | CCCCN(CCCC)CCCOc1ccc(-c2csc(-c3ccc(C(F)(F)F)cc3)n2)cc1 [Example 20, 4-(4-Dibutylaminopropoxyphenyl)-2-(4-trifluoromethylphenyl)thiazole] | 40 |  | inhibition at 10.6 µM ([3]; at 10.6 μM): 50%
5.78 | 6.06 |  | CCCCN(CCCC)CCCOc1ccc(-c2csc(-c3cccnc3)n2)cc1 [Example 21, 4-(4-Dibutylaminopropoxyphenyl)-2-(3-pyridinyl)thiazole] |  | 19 | inhibition at 20 µM ([3]; at 20 μM): 50%
6.24 | 6.62 | 29 | CCCCN(CCCC)CCCOc1c(Cl)cc(-c2csc(-c3ccccc3)n2)cc1Cl [Example 22, 4-[3,5-Dichloro-4-(dibutylaminopropoxy)phenyl]-2-phenylthiazole] |  | 41 | 
